Assay [1] concerns the target T1, LXRβ ligand-binding domain (Homo sapiens, UniProt P55055, DUP175-175).
T1 construct: amino acids 156-461; NP009052; made in house; host or cells: E. coli
T1 sequence (P55055 with tags, fused parts or gaps DUP175-175 limits assumed): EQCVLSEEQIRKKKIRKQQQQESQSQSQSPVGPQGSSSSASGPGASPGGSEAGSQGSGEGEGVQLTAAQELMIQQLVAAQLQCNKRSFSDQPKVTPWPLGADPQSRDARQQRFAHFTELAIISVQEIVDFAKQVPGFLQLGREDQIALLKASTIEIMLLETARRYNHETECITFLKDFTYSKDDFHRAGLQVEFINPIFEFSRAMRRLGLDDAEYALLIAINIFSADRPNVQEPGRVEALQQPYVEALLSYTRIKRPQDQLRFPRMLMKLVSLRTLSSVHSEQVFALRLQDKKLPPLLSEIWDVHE
Nature of the assay: TR-FRETβ activity assay (NCoA3 coactivator peptide recruitment). It is filed as biochemical. The method, boiled down: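 GST-tagged human LXRβ LBD (aa 156-461, E. coli) at 76 nM with 400 nM biotinylated NCoA3 peptide in Tris/HCl pH 6.8, 240 mM KCl, BSA, 0.002% Triton-X-100, plus 1 μM 24(S)-25-epoxycholesterol as prestimulating agonist. Compounds at 50 μM down to 0.002 μM, 1 h at 4 °C. Coactivator recruitment by TR-FRET (Tb cryptate/XL665, 615/665 nm), triplicates.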

Assay [2] addresses T2, full length (FL) LXRα (Homo sapiens, UniProt Q13133).
T2 construct: the full length (FL) proteins of LXRα (amino acids 1-447); NP005684; expressed in transfected cells; host or cells: HEK293
T2 sequence (Q13133 1-447): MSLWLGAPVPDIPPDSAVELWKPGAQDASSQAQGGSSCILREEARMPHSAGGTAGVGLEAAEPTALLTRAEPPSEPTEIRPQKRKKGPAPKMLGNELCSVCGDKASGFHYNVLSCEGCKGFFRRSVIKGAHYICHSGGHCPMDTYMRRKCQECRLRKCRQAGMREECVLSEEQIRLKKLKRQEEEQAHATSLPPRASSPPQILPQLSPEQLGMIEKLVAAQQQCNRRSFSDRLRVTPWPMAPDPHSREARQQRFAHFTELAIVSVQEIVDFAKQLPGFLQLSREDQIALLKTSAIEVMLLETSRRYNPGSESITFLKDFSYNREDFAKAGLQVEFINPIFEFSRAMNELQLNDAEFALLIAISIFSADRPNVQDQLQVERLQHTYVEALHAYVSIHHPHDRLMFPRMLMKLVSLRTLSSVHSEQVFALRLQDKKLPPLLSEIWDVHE
Nature of the assay: LXR Gal4 reporter transient transfection assay (FL-M2H Gal4α). It is filed as cell-based. The note with it: HEK293 cells; for EC50: full length LXRα, read-out: FL-M2H Gal4α (EC50 range). The method, boiled down: (§1)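 Cells (HEK293, 3.5×10^4/well) were plated 16-20 h, transfected with LXR, cofactor and reporter plasmids, treated with compound after 4 h, and lysed after a further 16 h. Interaction of LXR constructs with SRC1 or NCoR is detected by GAL4-driven Firefly luciferase.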

Assay [3] has as its target T3, full length (FL) LXRβ (Homo sapiens, UniProt P55055, DUP175-175).
T3 construct: the full length (FL) proteins of LXRα (amino acids 1-447); NP005684; NP009052; expressed in transfected cells; host or cells: HEK293
T3 sequence (P55055 with tags, fused parts or gaps DUP175-175): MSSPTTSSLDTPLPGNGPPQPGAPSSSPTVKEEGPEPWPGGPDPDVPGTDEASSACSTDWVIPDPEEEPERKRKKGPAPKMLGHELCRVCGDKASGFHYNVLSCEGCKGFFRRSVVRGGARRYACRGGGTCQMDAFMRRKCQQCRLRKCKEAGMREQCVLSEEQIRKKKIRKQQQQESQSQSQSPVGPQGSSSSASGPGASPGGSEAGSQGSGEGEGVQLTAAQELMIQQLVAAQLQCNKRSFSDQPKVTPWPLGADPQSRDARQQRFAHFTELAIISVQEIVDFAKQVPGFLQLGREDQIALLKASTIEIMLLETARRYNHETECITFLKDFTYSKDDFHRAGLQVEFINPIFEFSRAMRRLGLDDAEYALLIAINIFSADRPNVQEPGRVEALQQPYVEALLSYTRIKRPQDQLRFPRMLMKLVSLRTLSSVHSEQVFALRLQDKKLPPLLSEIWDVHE
The assay is described as follows: LXR Gal4 reporter transient transfection assay (FL-M2H Gal4β). As to conditions: HEK293 cells; for EC50: full length LXRβ, read-out: FL-M2H Gal4β (EC50 range). It is filed as cell-based. The method, boiled down:
as §1

The mark [4] stands for this setting: TR-FRET, 1 μM 24(S)-25-epoxycholesterol prestimulation, read-out: FRETβ (EC50 range).

We go through 26 compounds from US11618747B2, “LXR modulators with bicyclic core moiety” (OrsoBio, Inc., priority 2018, dated 2023).

Where two headings read alike, the source gives them in different places.

Turning to `N#Cc1sccc1-c1c(-c2cccc(-c3ccc(C(=O)O)cc3Cl)c2)n(S(=O)(=O)c2ccc(C(F)F)nc2)c2ccc(F)cc12` [11/57], the EC50 in assay [1] (setting [4]), in assay [2] and in assay [3] was under 100 nM throughout.
Regarding `N#Cc1cccc(C#N)c1-c1c(-c2cccc(C34CCC(C(=O)O)(CC3)CC4)c2)n(S(=O)(=O)c2ccc(C(F)F)cc2)c2ccc(F)cc12` [11/58], the EC50 in assay [1] (setting [4]), in assay [2] and in assay [3] was under 100 nM in each case.
Take `CC(O)(C(=O)O)c1ccc(-c2cccc(-c3c(-c4c(C#N)cccc4C#N)c4cc(F)ccc4n3S(=O)(=O)c3ccc(C(F)F)cc3)c2)cc1` (stereo not shown) [11/59]: the EC50 in assay [1] (setting [4]), in assay [2] and in assay [3] was under 100 nM throughout.
As for `N#Cc1cccc(C#N)c1-c1c(-c2cccc([C@H]3CC[C@@H](C(=O)O)CC3)c2)n(S(=O)(=O)c2ccc(C(F)F)cc2)c2ccc(F)cc12` [11/61], the values for the EC50 in assay [1] (setting [4]), in assay [2] and in assay [3] were 100 to 1000 nM, under 100 nM and under 100 nM, respectively.
`N#Cc1cccc(C#N)c1-c1c(-c2cccc(-c3ccc(C(=O)O)cc3F)c2)n(S(=O)(=O)C2CCC(C(F)(F)F)CC2)c2ccc(F)cc12` (stereo not shown) [11/64]: the EC50 was 100 to 1000 nM in assay [1] (setting [4]), under 100 nM in assay [2] and under 100 nM in assay [3].
For `N#Cc1cccc(C#N)c1-c1c(-c2cccc(-c3ccc(C(=O)O)cc3Cl)c2)n(S(=O)(=O)C2CC3CCC2C3)c2ccc(F)cc12` (stereo not shown) [11/66], the values for the EC50 in assay [1] (setting [4]), in assay [2] and in assay [3] were 100 to 1000 nM, under 100 nM and under 100 nM, respectively.
On to `N#Cc1cncc(C#N)c1-c1c(-c2cccc(-c3ccc(C(=O)O)cc3Cl)c2)n(S(=O)(=O)c2ccc(C(F)F)cc2)c2ccc(F)cc12` [11/67], for which the values for the EC50 in assay [1] (setting [4]), in assay [2] and in assay [3] were 100 to 1000 nM, under 100 nM and under 100 nM, respectively.
As for `Cn1ccc(-c2c(-c3cccc(-c4ccc(C(=O)O)cc4Cl)c3)n(S(=O)(=O)c3ccc(C(F)F)cc3)c3ccc(F)cc23)c1C#N` [11/68], the EC50 in assay [1] (setting [4]), in assay [2] and in assay [3] was under 100 nM throughout.
With `O=C(O)C1CC1c1cccc(-c2c(-c3c(Cl)cccc3Cl)c3cc(F)ccc3n2S(=O)(=O)c2ccc(C(F)F)cc2)c1` (stereo not shown) [11/69], the EC50 in assay [1] (setting [4]), in assay [2] and in assay [3] was under 100 nM throughout.
For the compound `Cc1ccc(S(=O)(=O)n2c(-c3cccc(-c4ccc(C(=O)O)c(C)c4Cl)c3)c(-c3ccsc3C#N)c3cc(F)ccc32)cc1` [12/1], the figures for the EC50 in assay [1] (setting [4]), in assay [2] and in assay [3] were 100 to 1000 nM, under 100 nM and under 100 nM, respectively.
For `Cc1ccc(S(=O)(=O)n2c(-c3cccc(-c4cc(F)c(C(=O)O)cc4Cl)c3)c(-c3ccsc3C#N)c3cc(F)ccc32)cc1` [12/2], the EC50 in assay [1] (setting [4]) is 100 to 1000 nM; in assay [2] it was under 100 nM; in assay [3] it was under 100 nM.
Regarding `Cc1ccc(S(=O)(=O)n2c(-c3cccc(-c4ccc(C(=O)O)c(F)c4Cl)c3)c(-c3ccsc3C#N)c3cc(F)ccc32)cc1` [12/3], the EC50 was 100 to 1000 nM in assay [1] (setting [4]), under 100 nM in assay [2] and under 100 nM in assay [3].
With `COc1cc(-c2cccc(-c3c(-c4ccsc4C#N)c4cc(F)ccc4n3S(=O)(=O)c3ccc(C)cc3)c2)c(Cl)cc1C(=O)O` [12/4], the EC50 in assay [1] (setting [4]) is 100 to 1000 nM; in assay [2], under 100 nM; in assay [3], under 100 nM.
As for `COc1c(C(=O)O)ccc(-c2cccc(-c3c(-c4ccsc4C#N)c4cc(F)ccc4n3S(=O)(=O)c3ccc(C)cc3)c2)c1Cl` [12/5], the EC50 in assay [1] (setting [4]), in assay [2] and in assay [3] was under 100 nM in each case.
Turning to `Cc1ccc(S(=O)(=O)n2c(-c3cccc(-c4cc(C(=O)O)n[nH]4)c3)c(-c3ccsc3C#N)c3cc(F)ccc32)cc1` [12/6], the EC50 in assay [1] (setting [4]) fell in the range of 1000 to 10000 nM; in assay [2], 100 to 1000 nM; in assay [3], 1000 to 10000 nM.
Consider `Cc1ccc(S(=O)(=O)n2c(-c3cccc(-c4cc(C(=O)O)nn4C)c3)c(-c3ccsc3C#N)c3cc(F)ccc32)cc1` [12/7], for which the EC50 in assay [1] (setting [4]), in assay [2] and in assay [3] was 100 to 1000 nM each time.
`Cc1ccc(S(=O)(=O)n2c(-c3cccc(-c4cc(C(=O)O)nn4C(C)C)c3)c(-c3ccsc3C#N)c3cc(F)ccc32)cc1` [12/8]: the results for the EC50 in assay [1] (setting [4]), in assay [2] and in assay [3] were 1000 to 10000 nM, 100 to 1000 nM and 100 to 1000 nM, respectively.
On to `Cc1ccc(S(=O)(=O)n2c(-c3cccc(-c4ccc5c(C(=O)O)n[nH]c5c4)c3)c(-c3ccsc3C#N)c3cc(F)ccc32)cc1` [12/9], for which the EC50 in assay [1] (setting [4]), in assay [2] and in assay [3] was 100 to 1000 nM in each case.
With `N#Cc1cccc(C#N)c1-c1c(-c2cccc(-c3ccc(S(=O)(=O)O)cc3Cl)c2)n(S(=O)(=O)c2ccc(C(F)F)cc2)c2ccc(F)cc12` [12/10], the EC50 in assay [1] (setting [4]), in assay [2] and in assay [3] was under 100 nM each time.
Take `N#Cc1sccc1-c1c(-c2cccc(-c3ccc(C(=O)O)cc3)c2)n(S(=O)(=O)c2ccc3c(c2)CCC3)c2ccc(F)cc12` [23/3]: the EC50 is 100 to 1000 nM in assay [1] (setting [4]), under 100 nM in assay [2] and under 100 nM in assay [3].
As to `CC(C)(O)c1ccc(S(=O)(=O)n2c(-c3cccc(-c4ccc(C(=O)O)cc4Cl)c3)c(-c3ccccc3C#N)c3cc(F)ccc32)cc1` [30/16], the EC50 in assay [1] (setting [4]) was in the range of 1000 to 10000 nM; in assay [2], 100 to 1000 nM; in assay [3], 100 to 1000 nM.
In the case of `COC(=O)C(C)(C)N(C)C(=O)C1CN(c2cccc(-c3c(-c4ccsc4C#N)c4cc(F)ccc4n3S(=O)(=O)c3ccc(C)cc3)c2)C1` [32/2], the EC50 in assay [1] (setting [4]), in assay [2] and in assay [3] was 100 to 1000 nM each time.
As to `Cc1ccc(S(=O)(=O)n2c(-c3cccc(-c4ccc(C(=O)NS(C)(=O)=O)cc4Cl)c3)c(-c3ccsc3C#N)c3cc(F)ccc32)cc1` [32/4], the EC50 in assay [1] (setting [4]), in assay [2] and in assay [3] was under 100 nM each time.
As for `Cc1ccc(S(=O)(=O)n2c(-c3cccc(-c4ccc(C(=O)O)nc4C)c3)c(-c3ccsc3C#N)c3cc(F)ccc32)cc1` [36/1], the EC50 in assay [1] (setting [4]) was 100 to 1000 nM; in assay [2] it was under 100 nM; in assay [3], under 100 nM.
As to `Cc1ccc(S(=O)(=O)n2c(-c3cccc(-c4cccc(S(C)(=O)=Nc5nnn[nH]5)c4)c3)c(-c3ccsc3C#N)c3cc(F)ccc32)cc1` (stereo not shown) [37/1], the EC50 in assay [1] (setting [4]), in assay [2] and in assay [3] was 100 to 1000 nM each time.
Take `Cc1ccc(S(=O)(=O)n2c(-c3cccc(N4CC(C(=O)O)C4)c3)c(-c3csc(C#N)c3)c3cc(F)ccc32)cc1` [C3/29, reference compound]: the “FRETβ efficacy (value in brackets)” value in assay [1] (1 μM 24(S)-25-epoxycholesterol as prestimulating agonist) was −102%. Moreover, the EC50 in assay [1] (1 μM 24(S)-25-epoxycholesterol as prestimulating agonist, read-out: FRETβ potency) worked out at 4230 nM. The “FL-M2H Gal4α potency” value in assay [2] is “inactive”. The “FL-M2H Gal4β potency” value in assay [3] is “inactive”.
